# From patent publication US11472798B2 (Mission Therapeutics Limited, priority 2014, dated 2022)
# Target: T1, UCHL1 (Homo sapiens, UniProt P09936)
# T1 construct: made in house; host or cells: HEK293T
# T1 sequence (P09936 1-223): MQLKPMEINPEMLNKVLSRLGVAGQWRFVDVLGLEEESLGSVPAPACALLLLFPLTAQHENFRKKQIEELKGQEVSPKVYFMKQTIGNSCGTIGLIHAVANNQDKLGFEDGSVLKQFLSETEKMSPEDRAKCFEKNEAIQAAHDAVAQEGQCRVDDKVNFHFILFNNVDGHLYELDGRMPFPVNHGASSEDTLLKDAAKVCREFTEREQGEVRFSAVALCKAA
# Assay: UCHL1 biochemical IC50 assay (fluorescence polarisation)
# Details: 30 min enzyme/compound pre-incubation at room temp, read after 2 hr incubation, read-out: Activity range (UCHL1 biochemical IC50 assay)
# In short: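 Fluorescence polarisation (ex 540/em 590 nm) of 50 nM TAMRA-labelled ubiquitin–peptide isopeptide substrate was read at time zero and after 2 h at room temperature. Compounds (100–0.03 μM final, in duplicate) were given 30 min preincubation with N-FLAG UCHL1 from HEK293T cells in pH 7.5 Tris buffer.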
row,Structure (SMILES),IC50
1,"N#CN1CCC(C(=O)Nc2ncc(-c3ccccc3F)s2)C1 (centres unmarked) [Example 3, 1-cyano-N-(5-(2-fluorophenyl)thiazol-2-yl)pyrrolidine-3-carboxamide]",1000 to 10000 nM
2,"N#CN1CC[C@H](C(=O)Nc2ccc3cccnc3n2)C1 [Example 56, (S)-1-cyano-N-(1,8-naphthyridin-2-yl)pyrrolidine-3-carboxamide]",10000 to 30000 nM
3,"CC1(C(=O)Nc2cn(-c3ccccc3)cn2)CCN(C#N)C1 (centres unmarked) [Example 79, 1-cyano-3-methyl-N-(1-phenyl-1H-imidazol-4-yl)pyrrolidine-3-carboxamide]",10000 to 30000 nM
4,"CN(C)CC(=O)N1CCc2nc(NC(=O)[C@H]3CCN(C#N)C3)sc2C1 [Example 197, (S)-1-cyano-N-(5-(dimethylglycyl)-4,5,6,7-tetrahydrothiazolo[5,4-c]pyridin-2-yl)pyrrolidine-3-carboxamide]",1000 to 10000 nM
5,"N#CN1CCC(C#N)(C(=O)Nc2ncc(-c3ccccc3)s2)C1 (centres unmarked) [Example 81, 1,3-dicyano-N-(5-phenylthiazol-2-yl)pyrrolidine-3-carboxamide]",1000 to 10000 nM
6,"N#CN1CC[C@H](C(=O)Nc2ccn(-c3ccccc3)n2)C1 [Example 45, (S)-1-cyano-N-(1-phenyl-1H-pyrazol-3-yl)pyrrolidine-3-carboxamide]",10000 to 30000 nM
7,"CS(=O)(=O)N1CCc2nc(NC(=O)[C@H]3CCN(C#N)C3)sc2C1 [Example 202, (S)-1-cyano-N-(5-(methylsulfonyl)-4,5,6,7-tetrahydrothiazolo[5,4-c]pyridin-2-yl)pyrrolidine-3-carboxamide]",< 1000 nM
8,"C[C@H]1[C@@H](C(=O)Nc2cn(Cc3ccccc3)cn2)CCN1C#N [Example 149, (2S,3S)—N-(1-benzyl-1H-imidazol-4-yl)-1-cyano-2-methylpyrrolidine-3-carboxamide]",< 1000 nM
9,"C[C@H]1[C@@H](C(=O)Nc2ncc(C3CCOCC3)s2)CCN1C#N [Example 76, (2S,3S)-1-cyano-2-methyl-N-(5-(tetrahydro-2H-pyran-4-yl)thiazol-2-yl)pyrrolidine-3-carboxamide]",< 1000 nM
10,"N#CN1CCC(C(=O)Nc2ccc(N3CCCCC3)cn2)C1 (centres unmarked) [Example 29, 1-cyano-N-(5-(piperidin-1-yl)pyridin-2-yl)pyrrolidine-3-carboxamide]",1000 to 10000 nM
11,"N#CN1CC[C@H](C(=O)Nc2cn(-c3ccc(F)cc3)cn2)C1 [Example 150, (S)-1-cyano-N-(1-(4-fluorophenyl)-1H-imidazol-4-yl)pyrrolidine-3-Carboxamide]",< 1000 nM
12,"N#CN1CC[C@H](C(=O)Nc2ncc(N3CCNC(=O)CC3)s2)C1 [Example 101, (S)-1-cyano-N-(5-(5-oxo-1,4-diazepan-1-yl)thiazol-2-yl)pyrrolidine-3-carboxamide]",< 1000 nM
13,"CC(C)(C)c1cnc(NC(=O)C2CCN(C#N)C2)s1 (centres unmarked) [Example 8, N-(5-(tert-butyl)thiazol-2-yl)-1-cyano-pyrrolidine-3-carboxamide]",1000 to 10000 nM
14,"Cc1cccc(-c2ccc(NC(=O)C3CCN(C#N)C3)nc2)c1 (centres unmarked) [Example 135, 1-cyano-N-(5-(m-tolyl)pyridin-2-yl)pyrrolidine-3-carboxamide]",1000 to 10000 nM
15,N#CN1CCC(C(=O)Nc2cc(-c3ccccc3)no2)C1 (centres unmarked) [Example 13],1000 to 10000 nM
16,"N#CN1CC[C@H](C(=O)Nc2cc(-c3cccc4nccn34)ccn2)C1 [Example 253, (S)-1-cyano-N-(4-(imidazo[1,2-a]pyridin-5-yl)pyridin-2-yl)pyrrolidine-3-carboxamide]",< 1000 nM
17,"C[C@@H]1CN(C#N)C[C@H]1C(=O)Nc1cn([C@@H](C)c2ccccc2)cn1 [Example 173, (3S,4S)-1-cyano-4-methyl-N-(1-((S)-1-phenylethyl)-1H-imidazol-4-yl)pyrrolidine-3-carboxamide]",< 1000 nM

# Next, values leading:
row,IC50,Structure (SMILES)
1,< 1000 nM,"N#CN1CC[C@H](C(=O)Nc2cn(Cc3ccncc3)cn2)C1 [Example 170, (S)-1-cyano-N-(1-(pyridin-4-ylmethyl)-1H-imidazol-4-yl)pyrrolidine-3-carboxamide]"
2,< 1000 nM,"CN1CCCC(n2cnc(NC(=O)[C@H]3CCN(C#N)C3)c2)C1 (stereo partly drawn) [Example 187, (3S)-1-cyano-N-(1-(1-methylpiperidin-3-yl)-1H-imidazol-4-yl)pyrrolidine-3-carboxamide]"
3,< 1000 nM,"N#CN1CC[C@H](C(=O)Nc2nc3c(s2)CN(C(=O)c2cccnc2)CC3)C1 [Example 196, (S)-1-cyano-N-(5-nicotinoyl-4,5,6,7-tetrahydrothiazolo[5,4-c]pyridin-2-yl)pyrrolidine-3-carboxamide]"
4,< 1000 nM,"Cn1nc(NC(=O)[C@H]2CCN(C#N)C2)cc1-c1ccccc1 [Example 60, (S)-1-cyano-N-(1-methyl-5-phenyl-1H-pyrazol-3-yl)pyrrolidine-3-carboxamide]"
5,< 1000 nM,"N#CN1CCC(C(=O)Nc2ncc(CN3CCOCC3)s2)C1 (centres unmarked) [Example 140, 1-cyano-N-(5-(morpholinomethyl)thiazol-2-yl)pyrrolidine-3-carboxamide]"
6,< 1000 nM,"N#CN1CC[C@H](C(=O)Nc2ncc(-c3cccc4c3NC(=O)C4)s2)C1 [Example 228, (S)-1-cyano-N-(5-(2-oxoindolin-7-yl)thiazol-2-yl)pyrrolidine-3-carboxamide]"
7,< 1000 nM,"Cc1noc(C)c1-c1ccc2nc(NC(=O)[C@H]3CCN(C#N)C3)sc2c1 [Example 120, (S)-1-cyano-N-(6-(3,5-dimethylisoxazol-4-yl)benzo[d]thiazol-2-yl)pyrrolidine-3-carboxamide]"
8,< 1000 nM,"C[C@H]1[C@@H](C(=O)Nc2ncc(-c3ccccc3)s2)CCN1C#N [Example 72, (2S,3S)-1-cyano-2-methyl-N-(5-phenylthiazol-2-yl)pyrrolidine-3-carboxamide]"
9,< 1000 nM,"C[C@@H]1CN(C#N)C[C@H]1C(=O)Nc1ncc(N2CCCCC2)s1 (racemic) [Example 104, (±)-trans-1-cyano-4-methyl-N-(5-(piperidin-1-yl)thiazol-2-yl)pyrrolidine-3-carboxamide]"
10,< 1000 nM,"N#CN1CC[C@H](C(=O)Nc2cn3cc(C4CC4)ccc3n2)C1 [Example 129, (S)-1-cyano-N-(6-cyclopropylimidazo[1,2-a]pyridin-2-yl)pyrrolidine-3-carboxamide]"
11,< 1000 nM,"CNC(=O)c1cc(-c2cnc(NC(=O)[C@H]3CCN(C#N)C3)s2)ccc1F [Example 231, (S)-1-cyano-N-(5-(4-fluoro-3-(methylcarbamoyl)phenyl)thiazol-2-yl) pyrrolidine-3-carboxamide]"
12,< 1000 nM,"N#CN1CC[C@H](C(=O)Nc2cn(C3CCCCC3)cn2)C1 [Example 162, (S)-1-cyano-N-(1-cyclohexyl-1H-imidazol-4-yl)pyrrolidine-3-carboxamide]"
13,< 1000 nM,"N#CN1CC[C@H](C(=O)Nc2ncc(Cc3ccccc3)s2)C1 [Example 57, (S)-N-(5-benzylthiazol-2-yl)-1-cyanopyrrolidine-3-carboxamide]"
14,< 1000 nM,"CC(=O)NCC1CCCCN1c1cnc(NC(=O)C2CCN(C#N)C2)s1 (centres unmarked) [Example 93, N-(5-(2-(acetamidomethyl)piperidin-1-yl)thiazol-2-yl)-1-cyanopyrrolidine-3-carboxamide]"
15,< 1000 nM,"Cc1n[nH]c(C)c1-c1ccc2nc(NC(=O)[C@H]3CCN(C#N)C3)sc2c1 [Example 125, (S)-1-cyano-N-(6-(3,5-dimethyl-1H-pyrazol-4-yl)benzo[d]thiazol-1-2-yl)pyrrolidine-3-carboxamide]"
